Results reported in patent publication US20230151003A1, “COMPOUNDS AND METHODS OF USE” (Exelixis, Inc., priority 2020, published 2023).
Structures can show the parent of a compound that is named as a salt.

Experiments:
KDR = KDR (Homo sapiens, UniProt P35968); assay: KDR autophosphorylation ELISA in HUVEC cells; type: cell-based; parameters: endogenous in cells; host or cells: HUVEC (Lonza #C2519A); conditions: Table 3 Cellular Activities, VEGF165-stimulated, phospho-KDR ELISA
In short: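 HUVECs grown 24 h at 37 °C, then serum-starved 24 h, were preincubated 1 h with an 8-point compound series (0.3% DMSO) and stimulated with 100 ng/mL human VEGF165 for 5 min. Phospho-KDR in lysates was measured by sandwich ELISA against a phospho-KDR standard; IC50 from 4-parameter logistic fit.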

Met = Met (Homo sapiens, UniProt P08581); assay: Met autophosphorylation ELISA in PC-3 cells; type: cell-based; parameters: endogenous in cells; host or cells: PC-3 prostate cancer cells (ATCC #CRL-1435); conditions: Table 3 Cellular Activities, HGF-stimulated, phospho-Met ELISA, read-out: c-Met IC50
Chain of Met (P08581 25-1390): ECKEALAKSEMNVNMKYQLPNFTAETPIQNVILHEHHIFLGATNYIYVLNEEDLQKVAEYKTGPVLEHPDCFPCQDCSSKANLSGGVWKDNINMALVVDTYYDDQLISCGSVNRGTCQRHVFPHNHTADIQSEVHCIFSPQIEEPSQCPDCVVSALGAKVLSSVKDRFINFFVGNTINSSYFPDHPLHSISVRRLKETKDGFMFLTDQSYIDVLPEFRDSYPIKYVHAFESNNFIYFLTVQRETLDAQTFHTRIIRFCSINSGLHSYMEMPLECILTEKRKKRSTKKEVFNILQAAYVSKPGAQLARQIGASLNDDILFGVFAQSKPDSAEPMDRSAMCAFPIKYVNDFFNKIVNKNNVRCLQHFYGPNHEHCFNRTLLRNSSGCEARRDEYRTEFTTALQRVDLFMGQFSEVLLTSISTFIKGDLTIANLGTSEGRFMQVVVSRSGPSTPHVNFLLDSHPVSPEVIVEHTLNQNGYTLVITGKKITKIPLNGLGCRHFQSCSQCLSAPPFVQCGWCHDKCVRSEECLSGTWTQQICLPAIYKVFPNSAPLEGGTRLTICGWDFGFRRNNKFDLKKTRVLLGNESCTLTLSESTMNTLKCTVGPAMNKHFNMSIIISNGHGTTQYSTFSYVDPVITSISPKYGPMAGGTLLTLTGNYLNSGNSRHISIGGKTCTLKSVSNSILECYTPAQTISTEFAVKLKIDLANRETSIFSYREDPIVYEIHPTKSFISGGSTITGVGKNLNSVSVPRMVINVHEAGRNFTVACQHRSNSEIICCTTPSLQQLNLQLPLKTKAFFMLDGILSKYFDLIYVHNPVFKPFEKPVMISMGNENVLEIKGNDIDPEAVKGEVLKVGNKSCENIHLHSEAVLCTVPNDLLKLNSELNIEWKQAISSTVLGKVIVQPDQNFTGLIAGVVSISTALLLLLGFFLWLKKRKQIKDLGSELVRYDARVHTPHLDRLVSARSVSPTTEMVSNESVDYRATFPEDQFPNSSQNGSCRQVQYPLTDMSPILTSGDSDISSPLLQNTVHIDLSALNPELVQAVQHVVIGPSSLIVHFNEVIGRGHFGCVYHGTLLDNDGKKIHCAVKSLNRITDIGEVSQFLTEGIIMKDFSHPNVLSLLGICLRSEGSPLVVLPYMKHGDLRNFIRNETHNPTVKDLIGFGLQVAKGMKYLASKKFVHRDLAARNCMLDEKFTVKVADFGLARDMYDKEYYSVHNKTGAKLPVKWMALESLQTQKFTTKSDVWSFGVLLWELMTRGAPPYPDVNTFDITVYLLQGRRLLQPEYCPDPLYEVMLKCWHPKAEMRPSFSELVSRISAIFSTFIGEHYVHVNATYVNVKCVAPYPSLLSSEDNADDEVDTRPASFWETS
In short: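 Serum-starved (3 h) PC-3 cells pre-incubated 1 h with compound (8-point dose curve, 0.3% DMSO), then stimulated with 100 ng/mL recombinant human HGF for 10 min. Lysate phospho-Met (panTyr) measured by sandwich ELISA; IC50 from 4-parameter logistic fit, normalised to DMSO (100%) and reference-inhibitor (0%) controls.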

Chain of KDR (P35968 20-1356): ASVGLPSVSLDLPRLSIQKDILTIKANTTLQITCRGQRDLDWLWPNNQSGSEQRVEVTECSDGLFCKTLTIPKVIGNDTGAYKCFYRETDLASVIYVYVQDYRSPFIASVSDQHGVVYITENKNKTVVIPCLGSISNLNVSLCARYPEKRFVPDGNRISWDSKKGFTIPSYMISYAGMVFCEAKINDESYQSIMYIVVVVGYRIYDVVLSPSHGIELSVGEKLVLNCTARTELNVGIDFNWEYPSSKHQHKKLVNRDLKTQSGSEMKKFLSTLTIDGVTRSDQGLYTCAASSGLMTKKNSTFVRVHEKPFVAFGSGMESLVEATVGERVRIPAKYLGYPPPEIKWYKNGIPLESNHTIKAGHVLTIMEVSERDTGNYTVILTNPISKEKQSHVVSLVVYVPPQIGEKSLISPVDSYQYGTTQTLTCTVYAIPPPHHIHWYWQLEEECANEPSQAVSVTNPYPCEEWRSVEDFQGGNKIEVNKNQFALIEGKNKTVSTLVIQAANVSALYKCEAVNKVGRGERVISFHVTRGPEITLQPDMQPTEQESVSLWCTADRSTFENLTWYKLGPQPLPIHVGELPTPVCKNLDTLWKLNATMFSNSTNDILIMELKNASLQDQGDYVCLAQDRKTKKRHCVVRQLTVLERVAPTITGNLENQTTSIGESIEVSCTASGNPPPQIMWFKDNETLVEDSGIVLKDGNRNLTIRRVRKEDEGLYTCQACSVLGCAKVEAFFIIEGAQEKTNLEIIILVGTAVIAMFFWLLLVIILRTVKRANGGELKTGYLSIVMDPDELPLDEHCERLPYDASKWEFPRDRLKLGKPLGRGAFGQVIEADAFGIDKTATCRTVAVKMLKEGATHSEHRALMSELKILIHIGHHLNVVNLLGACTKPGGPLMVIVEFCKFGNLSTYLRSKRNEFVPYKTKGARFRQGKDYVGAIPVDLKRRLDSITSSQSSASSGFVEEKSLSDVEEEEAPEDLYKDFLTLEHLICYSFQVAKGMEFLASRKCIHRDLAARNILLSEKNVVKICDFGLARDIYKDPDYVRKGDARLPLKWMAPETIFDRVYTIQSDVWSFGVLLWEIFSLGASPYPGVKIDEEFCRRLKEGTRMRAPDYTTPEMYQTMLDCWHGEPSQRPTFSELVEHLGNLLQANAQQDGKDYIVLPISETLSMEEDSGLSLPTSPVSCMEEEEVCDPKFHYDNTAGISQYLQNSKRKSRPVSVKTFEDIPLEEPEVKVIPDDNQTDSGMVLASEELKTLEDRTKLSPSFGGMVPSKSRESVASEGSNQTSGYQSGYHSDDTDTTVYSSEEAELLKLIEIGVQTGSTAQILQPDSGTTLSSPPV

Compound	IC50 (KDR)	IC50 (Met)
COc1cc2nccc(Oc3ccc(NC(=O)c4cnc(C)c(-c5ccnn5C)c4O)cc3F)c2nc1OC [Compound 104]	≤ 100 nM	≤ 100 nM
COc1cnc2c(Oc3ccc(NC(=O)c4c(C)n(C)c(C)c(-c5cccs5)c4=O)cc3)ccnc2c1 [Compound 165, N-[4-[(7-Methoxy-1,5-naphthyridin-4-yl)oxy]phenyl]-1,2,6-trimethyl-4-oxo-5-thiophen-2-ylpyridine-3-carboxamide]	300 to 1000 nM	≤ 100 nM
COc1cnc2c(Oc3ccc(NC(=O)c4c(C)n(C)c(C)c(-c5cccs5)c4=O)cc3F)ccnc2c1 [Compound 166, N-[3-Fluoro-4-[(7-methoxy-1,5-naphthyridin-4-yl)oxy]phenyl]-1,2,6-trimethyl-4-oxo-5-thiophen-2-ylpyridine-3-carboxamide]	300 to 1000 nM	≤ 100 nM
COc1cnc2c(Oc3ccc(NC(=O)c4cn(CCF)c(C)c(-c5ccsc5)c4=O)cc3F)ccnc2c1 [Compound 330, 1-(2-Fluoroethyl)-N-[3-fluoro-4-[(7-methoxy-1,5-naphthyridin-4-yl)oxy]phenyl]-6-methyl-4-oxo-5-thiophen-3-ylpyridine-3-carboxamide]	300 to 1000 nM	≤ 100 nM
C=Cc1ccc(-c2c(C)ncc(C(=O)Nc3ccc(Oc4ccnc5cc(OC)c(OC)nc45)c(F)c3)c2O)o1 [Compound 151, N-[4-[(6,7-Dimethoxy-1,5-naphthyridin-4-yl)oxy]-3-fluorophenyl]-5-(5-ethenylfuran-2-yl)-4-hydroxy-6-methylpyridine-3-carboxamide]	≤ 100 nM	≤ 100 nM
COc1cc2nccc(Oc3ccc(NC(=O)c4cnc(C)c(-c5cc(C(F)(F)F)nn5C)c4O)cc3F)c2nc1OC [Compound 105]	≤ 100 nM	100 to 300 nM
CCc1ccc(-c2c(C)nc(C)c(C(=O)Nc3ccc(Oc4ccnc5cc(OC)c(OC)nc45)c(F)c3)c2O)o1 [Compound 147, N-[4-[(6,7-Dimethoxy-1,5-naphthyridin-4-yl)oxy]-3-fluorophenyl]-5-(5-ethylfuran-2-yl)-4-hydroxy-2,6-dimethylpyridine-3-carboxamide]	≤ 100 nM	≤ 100 nM
COc1cc2nccc(Oc3ccc(NC(=O)c4c(C)nc(C)c(-c5ccc(C6CC6)o5)c4O)cc3F)c2nc1OC [Compound 155B, 5-(5-Cyclopropylfuran-2-yl)-N-[4-[(6,7-dimethoxy-1,5-naphthyridin-4-yl)oxy]-3-fluorophenyl]-4-hydroxy-2,6-dimethylpyridine-3-carboxamide]	≤ 100 nM	≤ 100 nM
COc1cc2nccc(Oc3ccc(NC(=O)c4c(C)nc(C)c(-c5sccc5C)c4O)cc3F)c2nc1OC [Compound 139, N-[4-[(6,7-Dimethoxy-1,5-naphthyridin-4-yl)oxy]-3-fluorophenyl]-4-hydroxy-2,6-dimethyl-5-(3-methylthiophen-2-yl)pyridine-3-carboxamide]	≤ 100 nM	≤ 100 nM
COc1cc2nccc(Oc3ccc(NC(=O)c4cnc(C)c(-c5ccc(C6CC6)o5)c4O)cc3F)c2nc1OC [Compound 155A, 5-(5-Cyclopropylfuran-2-yl)-N-[4-[(6,7-dimethoxy-1,5-naphthyridin-4-yl)oxy]-3-fluorophenyl]-4-hydroxy-6-methylpyridine-3-carboxamide hydrochloride]	≤ 100 nM	≤ 100 nM
COc1cc2nccc(Oc3ccc(NC(=O)c4c(C)n(C)c(C)c(-c5cccs5)c4=O)cc3F)c2nc1OC [Compound 168, N-[4-[(6,7-Dimethoxy-1,5-naphthyridin-4-yl)oxy]-3-fluorophenyl]-1,2,6-trimethyl-4-oxo-5-thiophen-2-ylpyridine-3-carboxamide]	≤ 100 nM	≤ 100 nM
COc1cc2nccc(Oc3ccc(NC(=O)c4cnc(C)c(-c5ccsc5)c4O)cc3F)c2nc1OC [Compound 93, N-[4-[(6,7-Dimethoxy-1,5-naphthyridin-4-yl)oxy]-3-fluoro-phenyl]-4-hydroxy-6-methyl-5-(3-thienyl)pyridine-3-carboxamide]	≤ 100 nM	≤ 100 nM
COc1cc2nccc(Oc3ccc(NC(=O)c4c(C)n(C)c(C)c(-c5ccco5)c4=O)cc3)c2nc1OC [Compound 164, N-[4-[(6,7-Dimethoxy-1,5-naphthyridin-4-yl)oxy]phenyl]-5-(furan-2-yl)-1,2,6-trimethyl-4-oxopyridine-3-carboxamide]	300 to 1000 nM	≤ 100 nM
COc1cc2nccc(Oc3ccc(NC(=O)c4c(C)nc(C)c(-c5ccnn5C)c4O)cc3F)c2nc1OC [Compound 108, N-[4-[(6,7-Dimethoxy-1,5-naphthyridin-4-yl)oxy]-3-fluoro-phenyl]-4-hydroxy-2,6-dimethyl-5-(2-methylpyrazol-3-yl) pyridine-3-carboxamide]	≤ 100 nM	≤ 100 nM
COc1cc2nccc(Oc3ccc(NC(=O)c4cn(CCF)c(C)c(-c5ccco5)c4=O)cc3F)c2nc1OC [Compound 333, N-[4-[(6,7-Dimethoxy-1,5-naphthyridin-4-yl)oxy]-3-fluorophenyl]-1-(2-fluoroethyl)-5-(furan-2-yl)-6-methyl-4-oxopyridine-3-carboxamide]	100 to 300 nM	≤ 100 nM
COc1cc2nccc(Oc3ccc(NC(=O)c4c(C)ncc(-c5cccs5)c4O)cc3F)c2nc1OC [Compound 123, N-[4-[(6,7-Dimethoxy-1,5-naphthyridin-4-yl)oxy]-3-fluorophenyl]-4-hydroxy-2-methyl-5-thiophen-2-ylpyridine-3-carboxamide]	≤ 100 nM	≤ 100 nM
COc1cnc2c(Oc3ccc(NC(=O)c4cnc(C)c(-c5ccoc5)c4O)cc3F)ccnc2c1 [Compound 99, N-[3-Fluoro-4-[(7-methoxy-1,5-naphthyridin-4-yl)oxy]phenyl]-5-(3-furyl)-4-hydroxy-6-methyl-pyridine-3-carboxamide]	≤ 100 nM	≤ 100 nM
COc1cc2nccc(Oc3ccc(NC(=O)c4c(C)ncc(-c5ccsc5)c4O)cc3F)c2nc1OC [Compound 127, N-[4-[(6,7-Dimethoxy-1,5-naphthyridin-4-yl)oxy]-3-fluorophenyl]-4-hydroxy-2-methyl-5-thiophen-3-ylpyridine-3-carboxamide]	≤ 100 nM	≤ 100 nM
COCc1nc(C)c(-c2cccs2)c(O)c1C(=O)Nc1ccc(Oc2ccnc3cc(OC)c(OC)nc23)c(F)c1 [Compound 115, N-[4-[(6,7-Dimethoxy-1,5-naphthyridin-4-yl)oxy]-3-fluorophenyl]-4-hydroxy-2-(methoxymethyl)-6-methyl-5-thiophen-2-ylpyridine-3-carboxamide]	≤ 100 nM	≤ 100 nM
C=CCc1ccc(-c2c(C)ncc(C(=O)Nc3ccc(Oc4ccnc5cc(OC)c(OC)nc45)c(F)c3)c2O)o1 [Compound 155, N-[4-[(6,7-Dimethoxy-1,5-naphthyridin-4-yl)oxy]-3-fluorophenyl]-4-hydroxy-6-methyl-5-(5-prop-2-enylfuran-2-yl)pyridine-3-carboxamide]	≤ 100 nM	≤ 100 nM
COc1cc2nccc(Oc3ccc(NC(=O)c4c(C)ncc(-c5sccc5C)c4O)cc3F)c2nc1OC [Compound 126, N-[4-[(6,7-Dimethoxy-1,5-naphthyridin-4-yl)oxy]-3-fluorophenyl]-4-hydroxy-2-methyl-5-(3-methylthiophen-2-yl)pyridine-3-carboxamide]	≤ 100 nM	≤ 100 nM
COc1cnc2c(Oc3ccc(NC(=O)c4cnc(C)c(-c5ccco5)c4O)cc3)ccnc2c1 [Compound 129, 5-(Furan-2-yl)-4-hydroxy-N-[4-[(7-methoxy-1,5-naphthyridin-4-yl)oxy]phenyl]-6-methylpyridine-3-carboxamide]	≤ 100 nM	≤ 100 nM
COc1nc2c(Oc3ccc(NC(=O)c4c(C)n(C)c(C)c(-c5ccco5)c4=O)cc3F)ccnc2cc1OCCC1CCC1 [Compound 337, N-[4-[[7-(2-Cyclobutylethoxy)-6-methoxy-1,5-naphthyridin-4-yl]oxy]-3-fluorophenyl]-5-(furan-2-yl)-1,2,6-trimethyl-4-oxopyridine-3-carboxamide]	≤ 100 nM	≤ 100 nM
COc1cc2nccc(Oc3ccc(NC(=O)c4cnc(C)c(-c5cc(C)cs5)c4O)cc3F)c2nc1OC [Compound 91, N-[4-[(6,7-Dimethoxy-1,5-naphthyridin-4-yl)oxy]-3-fluoro-phenyl]-4-hydroxy-6-methyl-5-(4-methyl-2-thienyl) pyridine-3-carboxamide]	≤ 100 nM	≤ 100 nM
COc1cnc2c(Oc3ccc(NC(=O)c4cn(CCF)c(C)c(-c5ccoc5)c4=O)cc3F)ccnc2c1 [Compound 334, 1-(2-Fluoroethyl)-N-[3-fluoro-4-[(7-methoxy-1,5-naphthyridin-4-yl)oxy]phenyl]-5-(furan-3-yl)-6-methyl-4-oxopyridine-3-carboxamide]	300 to 1000 nM	≤ 100 nM
COCc1nc(C)c(-c2ccccn2)c(O)c1C(=O)Nc1ccc(Oc2ccnc3cc(OC)c(OC)nc23)c(F)c1 [Compound 195, N-[4-[(6,7-Dimethoxy-1,5-naphthyridin-4-yl)oxy]-3-fluorophenyl]-4-hydroxy-2-(methoxymethyl)-6-methyl-5-pyridin-2-ylpyridine-3-carboxamide]	≤ 100 nM	≤ 100 nM
